Assay [1] concerns TGF-β-induced luciferase activity in HEK293T cells. Briefly: TGF-β-induced SMAD luciferase reporter assay in HEK293T cells. The settings on record: Homo sapiens, HEK-293T, 24 hours. It counts as cell-based. On the procedure: Compounds A-D were tested to determine whether they could inhibit TGF-β-induced luciferase activity in HEK293T cells in vitro.
30,000 HEK293T cells were seeded in a 96 well white flat bottom plate overnight. The next day 100 ng of a SMAD luciferase reporter plasmid per well was transfected into the cells using lipofectamine for 24 hours. The next day cells were treated with Compounds A-D and […] TGFβ for 24 hours. Luciferase activity was measured using the Dual-Glo® luciferase assay kit (Promega). The assay was run twice for Compounds A, B, and D, and three times for Compound C.
A general note: Reporter assays use an easily measured gene product as a stand-in for the process of interest.

The test system of assay [2] is primary mouse CD4^+ T cells. Briefly: MTS proliferation assay. It counts as cell-based. The settings on record: for IC50: Mus musculus, CD4+ T; for reversal of TGFβ-mediated inhibition of T cell proliferation (in words): mouse CD4^+ T cells, 1 nM TGF-β1. On the procedure: Compounds A-D were tested to determine whether they could inhibit TGF-β signaling in primary mouse CD4^+ T cells.
Primary mouse CD4^+ T cells were isolated from the spleens of C57/B6 mice using the RoboSep™ cell isolation system (Stemcell Technologies). 0.5 μg/ml of hamster anti-mouse CD3e antibody (145-2C11; eBioscience) was coated onto a 96 well flat bottom plate overnight. 1×10^5 purified CD4^+ T cells were incubated with 1 μg/ml soluble hamster anti-mouse CD28 antibody (37.51, BD Biosciences), 1 nM TGF-β1 and 8-fold serial dilutions of Compounds A-D. After 72 hours, cell proliferation was measured using an MTS assay (Promega) in accordance with the manufacturer's instructions.
A general note: Formazan colour is commonly taken as a measure of viable cells.

Assay [3] concerns Mouse CTLL2 cells. Briefly: CTLL2 proliferation assay (BrdU ELISA). It counts as cell-based. On the procedure:
Mouse CTLL2 cells were cultured at 1×10^5 cells/well in 0.2 ng/ml IL2. To each well as indicated 1 nM TGF-β, 1 μg/ml ADC, and/or 100 nM ALK5 inhibitor Compound C was added to the wells for 24 hours. Proliferation was quantitated via addition of the BrdU reagent (Abcam) to each well for another 12 hours and then analyzed by ELISA.
(Uptake of a labelled nucleoside into DNA is a usual measure of proliferation.)

The test system of assay [4] is Naïve CD4 T cells (iTreg FoxP3 expression). Briefly: iTreg conversion assay. It counts as cell-based, mouse. On the procedure: Naïve CD4 T cells were isolated from isolated mouse spleenocytes using a negative selection kit. The cell density was adjusted to 0.4×10^6 cells/ml, and 10 ng/ml of mouse IL-2, 20 ng/ml of TGF-β, and 1 μg/ml of soluble anti-CD28 was added to the cell suspension.
Anti-mouse CD3 antibody at 10 μg/ml was coated on a 24 well plate and incubated at 4° C. overnight. The antibody was then aspirated from the plate. 1 ml of the cell suspension was added to each well of the 24 well plate. ADC1 (DAR 4-6) at 3 μg/ml and 5 μg/ml, anti-transferrin receptor antibody, rat anti-mouse IgG2A isotype control ALK5 ADC, and ALK5 inhibitor Compound C at 100 nM and 1 μM were added to separate wells of the 24 well plate. The cells were then cultured for 72 hours. TfR expression was tested at 48 hours (data not shown). Cells were stained for FoxP3 (eBioscience FoxP3 staining buffer) and sorted by FACS at 72 hours.

Assay [5] has as its system GzmB expression in primary CD8^+ T cells. Briefly: Granzyme B expression assay. It counts as cell-based, mouse. The settings on record: 1 nM TGF-β, ADC1 at DARs 2-4, 4-6 and 6-8, flow cytometry. On the procedure:
Mouse CD3^+ T cells were purified from mouse spleens using the EasySep™ Mouse T cell isolation kit (negative selection) (Stemcell Technologies). CD3^+ T cells were activated as before using plate bound antiCD3e and soluble anti-CD28 for 48 hours. T cells were washed and re-plated in media with 5% serum plus 1 nM TGF-β−/+ADC.
Golgi stop reagent was added for the last 4 hours and then the cells were immunostained for surface CD8 (BD) and intracellular GzmB (eBioscience) and analyzed via flow cytometry. Granzyme B (GzmB) is a serine protease released by CD8^+ T cells to kill tumor cells. Thus, increased expression of GzmB is indicative of CD8^+ cytotoxic T cell activation.

Where [6] appears, read: Experiment 1, 100 μM TGFβ, read-out: Experiment 1 IC50.
[7] abbreviates: Experiment 2, 100 μM TGFβ, read-out: Experiment 2 IC50.
[8] abbreviates: Experiment 1, anti-CD3e/anti-CD28, 1 nM TGF-β1, 72 hours.
Where [9] appears, read: Experiment 2, anti-CD3e/anti-CD28, 1 nM TGF-β1, 72 hours, read-out: Experiment 2 IC50.
[10] abbreviates: Experiment 1, anti-CD3e/anti-CD28, 1 nM TGF-β1, 72 hours, read-out: Experiment 1 IC50.

We go through five molecules from US12473377B2, “Antibody-ALK5 inhibitor conjugates and their uses” (Synthis Therapeutics, Inc., priority 2016, dated 2025).

Like-named read-outs stand apart in the source and are kept apart here.

As to `Cc1cccc(-c2nc(N)sc2-c2ccc3ncccc3n2)n1` [Compound A, 4-(6-methylpyridin-2-yl)-5-(1,5-naphthyridin-2-yl)thiazol-2-amine], the half-maximal inhibitory concentration (IC50) was 18.7 nM in assay [1] (setting [6]), 29.8 nM in assay [1] (setting [7]) and 153 nM in assay [2] (setting [9]). In addition, in assay [2] (setting [8]), the “Experiment 1 IC50” value was “Value not obtained”. The “reversal of TGFβ-mediated inhibition of T cell proliferation (in words)” value in assay [2] is listed as “did not show consistent effects”.

For `CNCCOc1ccc(-c2cc(-c3c[nH]nc3-c3ccccn3)ccn2)cc1` [Compound B, N-methyl-2-(4-(4-(3-(pyridin-2-yl)-1H-pyrazol-4-yl)pyridin-2-yl)phenoxy)ethan-1-amine], the IC50 is 51.8 nM in assay [1] (setting [6]), 11.3 nM in assay [1] (setting [7]), 60 nM in assay [2] (setting [10]) and 34 nM in assay [2] (setting [9]). In addition, the “reversal of TGFβ-mediated inhibition of T cell proliferation (in words)” value in assay [2] is recorded as “reversed TGFβ-mediated inhibition of T cell proliferation”.

Turning to `CNCCOc1ccc(-c2cc(-c3c[nH]nc3-c3cccc(C)n3)ccn2)cc1` [Compound C, N-methyl-2-(4-(4-(3-(6-methylpyridin-2-yl)-1H-pyrazol-4-yl)pyridin-2-yl)phenoxy)ethan-1-amine], the IC50 in assay [1] (setting [6]) was 10.1 nM; in assay [1] (setting [7]), 21.2 nM; in assay [1] (Experiment 3, 100 μM TGFβ, read-out: Experiment 3 IC50) it was 13.2 nM; in assay [2] (setting [10]), 20 nM; in assay [2] (setting [9]), 33 nM. Further, the “restoration of CTLL2 proliferation in presence of TGF-β” value in assay [3] (100 nM ALK5 inhibitor Compound C, 1 nM TGF-β, 24 hours) was “almost complete reversal of TGF-β inhibition and restoration of CTLL2 proliferation”. Moreover, in assay [4] (100 nM free ALK5 inhibitor, 20 ng/ml TGF-β, 72 hours), the “amount of iTreg generated” value was “modestly decreased the amount of iTreg generated”. Besides, the iTreg generation entry in assay [4] (100 nM of free ALK5 inhibitor (FIG. 12 legend)) was “decreases iTreg generation”. In addition, the “reversal of TGFβ-mediated inhibition of T cell proliferation (in words)” value in assay [2] was “reversed TGFβ-mediated inhibition of T cell proliferation”. The “restoration of GzmB expression” value in assay [5] (listed as ALK5 compound) is “restore GzmB expression”; in assay [5] (listed as free ALK5 inhibitor), “partially restores Granzyme B expression”.

In the case of `CCNC(=O)c1ccc2c(c1)NC(=O)/C2=C(\Nc1ccc(N(CCNC)S(C)(=O)=O)cc1)c1ccccc1` [Compound D, (Z)-N-ethyl-3-(((4-(N-(2-(methylamino)ethyl)methylsulfonamido)phenyl)amino)(phenyl)methylene)-2-oxoindoline-6-carboxamide], the IC50 in assay [1] (setting [6]) was determined as 1070 nM; in assay [1] (setting [7]) it was 1520 nM. Also, in assay [2] (setting [8]), the “Experiment 1 IC50” value was “Value not obtained”. Besides, in assay [2] (Experiment 2, anti-CD3e/anti-CD28, 1 nM TGF-β1, 72 hours), the “Experiment 2 IC50” value is “Value not obtained”. The “reversal of TGFβ-mediated inhibition of T cell proliferation (in words)” value in assay [2] is listed as “an IC50 value was not obtained”.

For the molecule TGF-β, the “inhibition of CTLL2 proliferation” value in assay [3] (1 nM TGF-β alone) was “approximately 60%”.

A word on the IC50: it is the concentration needed to halve the response being measured.
